This note sets out measurements from patent US20140349923A1, “Compositions And Methods For Treating Diabetes And/Or Obesity” (GlaxoSmithKline Intellectual Property (No. 2) Limited, priority 2012, published 2014).

The test is described as follows: Chronic obesity efficacy study in DIO mice, chow ingredients with or without exendin-4 AlbudAb. Type of test: in vivo, DIO C57BL/6 mice. As for the experimental part:
Male diet induced obese (DIO) C57BL/6 mice (40-50 g body weight) and lean C57BL/6 mice (Taconic, Hudson, N.Y.) were used for the chronic obesity efficacy studies. The DIO mice were group housed and fed a high fat diet (60% fat by kcal) by the vendor from the time of weaning. Upon receipt at the GlaxoSmithKline Research Triangle Park facility, all mice were single-housed and maintained at constant temperature (approximately 22° C.) with 12 hr light/dark cycle (lights on from 5:00 AM to 5:00 PM). The mice were given ad libitum access to food (Research Diets D12451, 45 kcal % fat for DIO; Lab Diet 5001, 13.5 kcal % fat for lean) and water. All animal protocols were approved by the institutional animal care and use committee at GlaxoSmithKline in Research Triangle Park, N.C. The BCE, OFS, pectin, oleic acid, Nutella containing chows were prepared by mixing in a Hobart mixer with a whisk attachment and stored at 4° C. until used. Chows were fed to mice in glass jars with wire mesh column inserts (Unifab Corp., Kalamazoo, Mich.). […] All combination then were evaluated with and without co-treatment with exendin-4-albudAb. […] Body weights (BW) were measured on day −7 and then every 3 to 4 days for the duration of the study. On day 24, body composition was measured using quantitative magnetic resonance (QMR). […]

For the molecule `CCCCCCCC/C=C\CCCCCCCC(=O)O` [oleic acid], the “weight loss (% change in body weight)” value (26 days) is given as −4.3%. The “effect on weight compared to vehicle” value (Student's t-test) is on record as “statistically significant weight loss”.
